Data: a melting point compilation (Tetko et al.; mined from patent text by program, amines drawn as free bases though some values may be those of a salt)

Structure (SMILES) | melting point
Cc1cc(-n2ccnc2)c2cccc(OCc3c(Cl)ccc(S(=O)(=O)N4CCC(CO)CC4)c3Cl)c2n1 | 100 °C
CC(C)C1NC(=S)N(c2ccc(N(C)C)c3ccccc23)C1=O (stereo not given) | 108 to 110 °C
OCc1ccc2c(n1)C(CNCCCCCCOCCC#Cc1ccc(F)cc1)OC(c1ccccc1)O2 (stereo not given) | 83 to 85 °C
C=Cc1ccc(S(=O)(=O)NS(=O)(=O)c2ccccc2)cc1 | 145 to 147 °C
Cc1nc(C)c(C(=O)Nc2ccc(-n3nc(C(F)(F)F)cc3C(F)(F)F)cc2)s1 | 158 to 159 °C
CSc1nc(-c2cc(C(=O)N(C)C)ccc2C)c2c(n1)N(c1c(F)cccc1F)C(=O)NC2 | 144 to 147 °C
CON=CC1CCCN(C(=O)Oc2ccccc2)C1 (stereo not given) | 40 to 41 °C
COc1cc(OC)nc(N2CCN(Cc3ccc(C(C)(C)NC(C)=O)cc3)CC2)n1 | 199 to 202 °C
CN1CCC(Oc2ccccc2N)(c2ccccc2)CC1 | 129 to 130 °C
Cc1nc(N2C(=O)N(Cc3ccc(F)cc3)C[C@@H]2C)sc1C(N)=O | 197 to 198 °C
O=C(Nc1ccc2cc(CN3CCCCCC3)cnc2c1)c1ccc(-c2ccc(Cl)cc2)cc1 | 204 °C
CC(=O)Nc1ccc(-c2cc(-c3c(-c4ccccn4)nc4ccccn34)ccn2)cc1 | 133 °C
COc1ccc(C2(C#Cc3ccc([N+](=O)[O-])cc3)CCC3(CC2)OCCO3)cc1OC1CCCC1 | 58 to 59 °C
CC(C)(O)c1cnn2c(-c3ccc(F)c(-c4cccnc4)c3)cnc2n1 | 199 to 200 °C
CC(C)c1ccc2c(c1)C(N1CCN(CCCO)CC1)Cc1ccc(F)cc1S2 (stereo not given) | 106 to 108 °C
CCCCCCCNC(=O)N(C)c1cccc(-c2ccc(CC3SC(=O)NC3=O)cc2)c1 (stereo not given) | 55 °C
CS(=O)c1c(C#N)nn(-c2c(Cl)cc(C(F)(F)F)cc2Cl)c1NCC(N)=O (stereo not given) | 155 to 157 °C
COc1ccc(CNc2c(C)c(C)c3c(c2C)C(c2ccc(C(C)C)cc2)C(C)(C)O3)cc1 (stereo not given) | 95 to 96 °C
O=C(NC(=S)Nc1ccccc1-c1ccccc1F)c1ccccc1 | 110 to 111 °C
COc1ccc2c(c1)OCC(NNc1ncnc3c1ncn3C1OC(CO)C(O)C1O)C2 (stereo not given) | 205 to 207 °C
C[C@H]1[C@@H](CO)CCN1c1ccc(C#N)c2ccccc12 | 158 to 159 °C

Structure (SMILES) | melting point
Cc1ccc2c(c1)CC(Cl)c1cc(F)ccc1S2 (stereo not given) | 63 to 64 °C
Cc1cc(C)c2oc(S)nc2c1C | 146 to 147 °C
O=S(CCCCCl)Cc1ccc(-c2ccccc2)cc1 (stereo not given) | 116 to 117 °C
CN1Cc2c(c3cc(CCN4CCN(c5nsc6ccccc56)CC4)ccc3[nH]c2=O)C1 | 205 to 207 °C
CC(C)(C)OC(=O)NCC(CC(=O)O)c1ccc(Cl)cc1 (stereo not given) | 139 to 141 °C
Nc1nc(F)cc(CF)n1 | 189 to 190 °C
CC(C)CC(=O)OCC(COC(=O)CC(C)C)OCn1cnc2c(=O)[nH]c(N)nc21 | 215 to 217 °C
Cc1nccn1-c1nccc2[nH]c(=O)ccc12 | > 310 °C
Nc1cccc(-c2ccc(CCN3CCN(CCc4ccccc4)CC3)cc2)n1 | 111 to 113 °C
OC(/C=C/c1cc(C(F)(F)F)ccc1Cl)(CF)CF | 61 to 62 °C
O=C1CCCc2cc3c(cc21)sc1ccccc13 | 160 to 165 °C
Cc1nc2ccc(-c3ccc(OCC4(NC(=O)OCc5ccccc5)COC4)cc3)nn2c1-c1cnc(N)c(C(F)(F)F)c1 | 209 to 212 °C
CC(=O)OC1CCC2(C)C(=CCC3C2CCC2(C)C(c4cccnc4)=CCC32)C1 (stereo not given) | 144 to 145 °C
Cc1cc(Br)cnc1CCCCn1nnc2cc(Cc3cccnc3)cnc21 | 114 to 115 °C
COc1ccc(-c2c(Cl)c(CN3C(=O)CCC3=O)nc3sc4c(c23)CCC(C(=O)O)C4)cc1 (stereo not given) | 258 to 259 °C
CC1CCCC(C)N1Cc1ccc2cc(NC(=O)c3ccc(-c4ccc(F)cc4)cc3)ccc2n1 (stereo not given) | 187 to 188 °C
CSC(SC)(SC)C(O)c1ccc(-n2cccc2)cc1 (stereo not given) | 101 to 103 °C
Cc1ccc(-c2c(NS(=O)(=O)c3ccc(C(C)(C)C)cc3)ncnc2OCCOc2ccc(N)cc2)cc1 | 190 to 191 °C
COC1CCN(c2cccc(-c3cnc4[nH]cc(C(=O)C(C)(C)C)c4n3)c2)C1 (stereo not given) | 194 to 195 °C
COc1cccc(Sc2c3c(=O)n(C)c(=O)n(CC(C)C)c3cn2Cc2cccc3ccccc23)c1 | 130 to 133 °C

Results, then the compound that gave them:

melting point | Structure (SMILES)
156 to 158 °C | CC(C)(C)OC(=O)N1CCc2c(n(CCO)c3c(Cl)ccc(Cl)c23)CC1
52 to 54 °C | CCOC(=O)c1sc(Oc2ccccc2)nc1C(F)(F)F
191 °C | COC(=O)C1=C(C)NN=C(c2cccs2)C1c1cccc(Cl)c1 (stereo not given)
187 to 188 °C | Cc1nc(Sc2ccccc2)sc1C(=O)O
138 °C | CN(C)C=CC(=O)c1ccc(OCc2ccccc2)cc1
143 °C | CC(=O)OC1CSC(Oc2cncc(-c3c(F)cc(F)cc3F)c2)C(OC(C)=O)C1OC(C)=O (stereo not given)
126 to 128 °C | CNCC(CNC(C)=O)c1cccc2ccc(OC)cc12 (stereo not given)
124 to 125 °C | Cc1sc(-c2cn[nH]c2)nc1O
202 to 204 °C | C#CCOc1ccc(C)cc1S(=O)(=O)NC(=O)Nc1nc(Cl)cc(OC)n1
153 to 155 °C | CCOC(=O)CN1CCN(c2cccc(C3=NC(C)(C)Cc4cc(OC)c5c(c43)CC(C)(C)O5)c2)S1(=O)=O
114 to 118 °C | N#Cc1ccc(-c2ccc(OCCC(=O)NO)cc2)cc1
67 to 69 °C | COc1c(N)cc(C)cc1N
164 to 166 °C | CCCCCc1cc2c(cc1/C=C/C=C/C(C)=C/C(=O)O)C(C)(C)CCC2(C)C
> 300 °C | O=c1[nH]c2cc3ccccc3cc2nc1-c1cc(O)c(O)c([N+](=O)[O-])c1
38 °C | CCC=C(CCC)C(=O)O
104 °C | CC(=O)c1cc(-c2ccc(C)cc2)c(OCc2ccccc2)c(C(C)(C)C)c1
214 to 217 °C | NS(=O)(=O)c1cc(C(=O)O)cc(N2CCCC2)c1Oc1ccccc1
195 to 196 °C | Cc1cc(C2=CC(=O)c3cccc(O)c3C2=O)c(C)[nH]1
200 °C | COc1ccc(OC)c(S(=O)(=O)n2c(COC(C)(C)C(=O)O)cc3nc(Cl)ccc32)c1
85 to 86 °C | C=C(C)Cc1cc(C=O)cc(OCC)c1O
105 to 107 °C | COC(=O)c1cccn1Cc1ccccc1[N+](=O)[O-]
158 °C | CCc1ccnc(C(=O)c2[nH]c3cc(Cl)ccc3c2CC(=O)O)c1Cl
< 48 °C | COc1cccc(NC(=O)C(C)(C)C)c1C(C)=O
238 to 241 °C | Cc1oc2cc(NS(C)(=O)=O)c(Oc3ccccc3)cc2c(=O)c1C(=O)O
95 to 97 °C | COC(=O)c1c(F)cc(OCCNC(=O)OCc2ccccc2)cc1F
267 °C | O=Cc1ccc(-c2ccc3nc[nH]c(=O)c3c2)o1
133 °C | COCCOc1ccc(CCNC(=O)C=Cc2ccccc2)cc1S(N)(=O)=O
227 to 228 °C | Cc1cc(Cl)cc(CO[C@H]2CCCN(Cc3nc(=O)[nH][nH]3)[C@H]2c2ccccc2)c1
175 °C | CCCCc1ccccc1C1C(C(=O)OCC)=C(CCC)Nc2[nH]ncc21 (stereo not given)
